This is an account of results in patent publication EP3243509A1, “OROBUCCAL ABSORPTION COMPOSITION FOR NEURO-PROTECTION” (priority 2016, dated 2017).

The subject of one experiment is multiple sclerosis (MS). Particulars: part intravenously, part per os; Hartstein and Ulett 1957; cited from earlier work.
For experiment [1], the system named is rat model with Alzheimer disease. As to conditions: Salkovic-Petrisic et al. 2014; cited from earlier work.
For experiment [2], the system named is open-angle acute primary glaucoma. The experiment in a line: Clinical Case Report 2. It is filed as in vivo, patient. As to conditions: ophthalmic treatment for IOP, after 4 months of treatment.

Structures are written as SMILES.

Regarding `O=C[C@H](O)[C@@H](O)[C@@H](O)[C@H](O)CO` [D-galactose], in the experiment on multiple sclerosis (MS), the “symptoms of the disease” value is “improved the symptoms of the disease”. For the same compound, the “effect of the oral treatment (learning capacity and memory)” value in experiment [1] is reported as “beneficial effect”. With `CC(C)NCC(O)COc1ccc(CCOCC2CC2)cc1` (stereo not drawn) [beta-toxolol, betaxolol], the “field of vision and acuity” value in experiment [2] is given as “not improved”.
